Experimental data published in ChEMBL document CHEMBL2429775, “The cytotoxicity of 8-O-4' neolignans from the seeds of Crataegus pinnatifida” (Bioorg Med Chem Lett, 2013).

How the values were obtained:
[1] = system: MRC5; assay: Growth inhibition against human MRC5 cells after 48 hrs by MTT assay; assay type: cell-based; conditions: for IC50: Homo sapiens, MRC5, 48 h; for growth inhibition (GI): human, mrc5, 48 h
[2] = system: HeLa; assay: Growth inhibition against human HeLa cells after 48 hrs by MTT assay; assay type: functional, cell-based
[3] = system: MCF7; assay: Growth inhibition against human MCF7 cells after 48 hrs by MTT assay; assay type: functional, cell-based; conditions: for IC50: MCF7, 48 h
[4] = system: HepG2; assay: Growth inhibition against human HepG2 cells after 48 hrs by MTT assay; assay type: functional, cell-based; conditions: for IC50: HepG2, 48 h
[5] = system: A549; assay: Growth inhibition against human A549 cells after 48 hrs by MTT assay; assay type: functional, cell-based; conditions: for IC50: A549, 48 h
[6] = system: HCT-116; assay: Growth inhibition against human HCT116 cells after 48 hrs by MTT assay; assay type: functional, cell-based; conditions: for IC50: HCT-116, 48 h
[7] = (§1) Growth inhibition against human A375-S2 cells after 48 hrs by MTT assay; assay type: functional, cell-based; conditions: A375-S2, 48 h
[8] = system: A375-S2; assay: as §1; assay type: functional, cell-based
[9] = system: K562; assay: Growth inhibition against human K562 cells after 48 hrs by MTT assay; assay type: functional, cell-based; conditions: for IC50: K562, 48 h
[10] = system: HT-1080; assay: Growth inhibition against human HT1080 cells after 48 hrs by MTT assay; assay type: functional, cell-based; conditions: for IC50: HT-1080, 48 h
[11] = system: HL-60; assay: Growth inhibition against human HL60 cells after 48 hrs by MTT assay; assay type: functional, cell-based; conditions: for IC50: HL-60, 48 h
[12] = system: U-937; assay: Growth inhibition against human U937 cells after 48 hrs by MTT assay; assay type: functional, cell-based; conditions: for IC50: U-937, 48 h

In the case of COC/C=C/c1ccc(O[C@H](CO)[C@H](OC)c2ccc(O)c(OC)c2)c(OC)c1, the IC50 [1] is reported as over 50 µM, the “growth inhibition (GI)” value [1] is reported as “Dose-dependent effect” and the IC50 [2] is reported as over 50 µM. The “growth inhibition (GI)” value [2] was “Dose-dependent effect”, the “growth inhibition (GI)” value [3] was “Dose-dependent effect” and the IC50 [3] was over 50 µM. For the same molecule, the “growth inhibition (GI)” value [4] was “Dose-dependent effect”, the IC50 [4] was over 50 µM and the “growth inhibition (GI)” value [5] was “Dose-dependent effect”. The IC50 [5] was over 50 µM, the “growth inhibition (GI)” value [6] was “Dose-dependent effect” and the IC50 [6] was 36 µM. The IC50 [7] was over 50 µM, the “growth inhibition (GI)” value [8] was “Dose-dependent effect” and the “growth inhibition (GI)” value [9] was “Dose-dependent effect”. The IC50 [9] was over 50 µM, the “growth inhibition (GI)” value [10] was “Dose-dependent effect” and the IC50 [10] was 36.4 µM. The “growth inhibition (GI)” value [11] was “Dose-dependent effect”, the IC50 [11] was 27.4 µM and the “growth inhibition (GI)” value [12] was “Dose-dependent effect”. It also gave an IC50 [12] of over 50 µM.
For COc1cc([C@@H](O)[C@@H](CO)Oc2ccc(C=O)cc2OC)ccc1O, the IC50 [1] was over 50 µM, the “growth inhibition (GI)” value [1] was “Dose-dependent effect” and the IC50 [2] was over 50 µM. The “growth inhibition (GI)” value [2] was “Dose-dependent effect”, the “growth inhibition (GI)” value [3] was “Dose-dependent effect” and the IC50 [3] was over 50 µM. For the same molecule, the “growth inhibition (GI)” value [4] was “Dose-dependent effect”, the IC50 [4] was over 50 µM and the “growth inhibition (GI)” value [5] was “Dose-dependent effect”. The IC50 [5] was over 50 µM, the “growth inhibition (GI)” value [6] was “Dose-dependent effect” and the IC50 [6] was over 50 µM. For the same molecule, the IC50 [7] was over 50 µM, the “growth inhibition (GI)” value [8] was “Dose-dependent effect” and the “growth inhibition (GI)” value [9] was “Dose-dependent effect”. For the same molecule, the IC50 [9] was over 50 µM, the “growth inhibition (GI)” value [10] was “Dose-dependent effect” and the IC50 [10] was over 50 µM. For the same molecule, the “growth inhibition (GI)” value [11] was “Dose-dependent effect”, the IC50 [11] was over 50 µM and the “growth inhibition (GI)” value [12] was “Dose-dependent effect”. It also gave an IC50 [12] of 32.2 µM.
In the case of COc1cc([C@@H](O)[C@@H](CO)Oc2ccc(/C=C/C=O)cc2OC)ccc1O, the IC50 [1] is reported as over 50 µM, the “growth inhibition (GI)” value [1] is reported as “Dose-dependent effect” and the IC50 [2] is reported as over 50 µM. For the same molecule, the “growth inhibition (GI)” value [2] was “Dose-dependent effect”, the “growth inhibition (GI)” value [3] was “Dose-dependent effect” and the IC50 [3] was over 50 µM. The “growth inhibition (GI)” value [4] was “Dose-dependent effect”, the IC50 [4] was 38.6 µM and the “growth inhibition (GI)” value [5] was “Dose-dependent effect”. The IC50 [5] was 25.5 µM, the “growth inhibition (GI)” value [6] was “Dose-dependent effect” and the IC50 [6] was 27.3 µM. For the same molecule, the IC50 [7] was 34.2 µM, the “growth inhibition (GI)” value [8] was “Dose-dependent effect” and the “growth inhibition (GI)” value [9] was “Dose-dependent effect”. The IC50 [9] was over 50 µM, the “growth inhibition (GI)” value [10] was “Dose-dependent effect” and the IC50 [10] was 33 µM. The “growth inhibition (GI)” value [11] was “Dose-dependent effect”, the IC50 [11] was 33.5 µM and the “growth inhibition (GI)” value [12] was “Dose-dependent effect”. It also gave an IC50 [12] of over 50 µM.
For COc1cc([C@H](O)[C@@H](CO)Oc2ccc(/C=C/C=O)cc2OC)ccc1O, the IC50 [1] was over 50 µM, the “growth inhibition (GI)” value [1] was “Dose-dependent effect” and the IC50 [2] was over 50 µM. For the same molecule, the “growth inhibition (GI)” value [2] was “Dose-dependent effect”, the “growth inhibition (GI)” value [3] was “Dose-dependent effect” and the IC50 [3] was over 50 µM. The “growth inhibition (GI)” value [4] was “Dose-dependent effect”, the IC50 [4] was 38.5 µM and the “growth inhibition (GI)” value [5] was “Dose-dependent effect”. For the same molecule, the IC50 [5] was 33.6 µM, the “growth inhibition (GI)” value [6] was “Dose-dependent effect” and the IC50 [6] was 32.5 µM. The IC50 [7] was 36.4 µM, the “growth inhibition (GI)” value [8] was “Dose-dependent effect” and the “growth inhibition (GI)” value [9] was “Dose-dependent effect”. The IC50 [9] was over 50 µM, the “growth inhibition (GI)” value [10] was “Dose-dependent effect” and the IC50 [10] was 35.2 µM. The “growth inhibition (GI)” value [11] was “Dose-dependent effect”, the IC50 [11] was 36.6 µM and the “growth inhibition (GI)” value [12] was “Dose-dependent effect”. It also gave an IC50 [12] of over 50 µM.
With O=c1[nH]cc(F)c(=O)[nH]1 [FLUOROURACIL] the “growth inhibition (GI)” value [2] was “Dose-dependent effect”, the “growth inhibition (GI)” value [3] was “Dose-dependent effect” and the “growth inhibition (GI)” value [4] was “Dose-dependent effect”. The “growth inhibition (GI)” value [5] was “Dose-dependent effect”, the “growth inhibition (GI)” value [6] was “Dose-dependent effect” and the “growth inhibition (GI)” value [8] was “Dose-dependent effect”. For the same molecule, the “growth inhibition (GI)” value [9] was “Dose-dependent effect”, the “growth inhibition (GI)” value [10] was “Dose-dependent effect” and the “growth inhibition (GI)” value [11] was “Dose-dependent effect”. For the same molecule, the IC50 [11] was 10.1 µM and the “growth inhibition (GI)” value [12] was “Dose-dependent effect”.
In the case of COc1cc([C@@H](OC)[C@@H](CO)Oc2ccc(/C=C/C=O)cc2OC)ccc1O, the IC50 [1] is reported as over 50 µM, the “growth inhibition (GI)” value [1] is reported as “Dose-dependent effect” and the IC50 [2] is reported as over 50 µM. For the same molecule, the “growth inhibition (GI)” value [2] was “Dose-dependent effect”, the “growth inhibition (GI)” value [3] was “Dose-dependent effect” and the IC50 [3] was over 50 µM. The “growth inhibition (GI)” value [4] was “Dose-dependent effect”, the IC50 [4] was 40 µM and the “growth inhibition (GI)” value [5] was “Dose-dependent effect”. The IC50 [5] was over 50 µM, the “growth inhibition (GI)” value [6] was “Dose-dependent effect” and the IC50 [6] was 26.4 µM. The IC50 [7] was over 50 µM, the “growth inhibition (GI)” value [8] was “Dose-dependent effect” and the “growth inhibition (GI)” value [9] was “Dose-dependent effect”. For the same molecule, the IC50 [9] was over 50 µM, the “growth inhibition (GI)” value [10] was “Dose-dependent effect” and the IC50 [10] was 31.9 µM. The “growth inhibition (GI)” value [11] was “Dose-dependent effect”, the IC50 [11] was 25.5 µM and the “growth inhibition (GI)” value [12] was “Dose-dependent effect”. The IC50 [12] was 2.71 µM.
In the case of COc1cc([C@H](O)[C@@H](CO)Oc2ccc(C=O)cc2OC)ccc1O, the IC50 [1] is reported as over 50 µM, the “growth inhibition (GI)” value [1] is reported as “Dose-dependent effect” and the IC50 [2] is reported as over 50 µM. For the same molecule, the “growth inhibition (GI)” value [2] was “Dose-dependent effect”, the “growth inhibition (GI)” value [3] was “Dose-dependent effect” and the IC50 [3] was over 50 µM. The “growth inhibition (GI)” value [4] was “Dose-dependent effect”, the IC50 [4] was over 50 µM and the “growth inhibition (GI)” value [5] was “Dose-dependent effect”. The IC50 [5] was over 50 µM, the “growth inhibition (GI)” value [6] was “Dose-dependent effect” and the IC50 [6] was over 50 µM. The IC50 [7] was over 50 µM, the “growth inhibition (GI)” value [8] was “Dose-dependent effect” and the “growth inhibition (GI)” value [9] was “Dose-dependent effect”. For the same molecule, the IC50 [9] was over 50 µM, the “growth inhibition (GI)” value [10] was “Dose-dependent effect” and the IC50 [10] was over 50 µM. The “growth inhibition (GI)” value [11] was “Dose-dependent effect”, the IC50 [11] was over 50 µM and the “growth inhibition (GI)” value [12] was “Dose-dependent effect”. For the same molecule, the IC50 [12] was 39.1 µM.
